# Laboratory results reported in ChEMBL document CHEMBL3112492, “Antiprotozoan lead discovery by aligning dry and wet screening: prediction, synthesis, and biological assay of novel quinoxalinones” (Bioorg Med Chem, 2014).
# Calls of active or inactive are those of the source. The calls are words filed in the database; no cut-off is given here.
# Tests used:
# Acanthamoeba castellanii = test: Antiprotozoal activity against trophozoite stage of Acanthamoeba castellanii Neff ATCC 30010 after 72 to 120 hrs by Alamar Blue assay; type: functional; details: Acanthamoeba castellanii str. Neff
# Trichomonas vaginalis [1] = test: Trichomonastatic activity against Trichomonas vaginalis JH31A at 10 ug/ml after 48 hrs by Neubauer chamber analysis relative to control; type: functional
# Trypanosoma cruzi [2] = test: Trypanocidal activity against epimastigote stage of Trypanosoma cruzi CL Brener at 10 ug/mL after 72 hrs by beta-galactosidase reporter gene assay relative to control; type: functional
# [3] = Inhibition of ferriprotoporphyrin-9 biocrystallization by micro-ELISA
# Trichomonas vaginalis [4] = test: Trichomonacidal activity against Trichomonas vaginalis JH31A at 100 ug/ml after 48 hrs by Neubauer chamber analysis relative to control; type: functional
# Trypanosoma cruzi [5] = test: Trypanocidal activity against epimastigote stage of Trypanosoma cruzi CL Brener at 1 ug/mL after 72 hrs by beta-galactosidase reporter gene assay relative to control; type: functional
# Trichomonas vaginalis [6] = test: Trichomonastatic activity against Trichomonas vaginalis JH31A at 1 ug/ml after 24 hrs by Neubauer chamber analysis relative to control; type: functional
# J774 [7] = test: Cytotoxicity against mouse J774 cells at 100 ug/mL after 24 hrs by MTT assay; type: cell-based; details: j774, 24 h
# Trichomonas vaginalis [8] = test: Trichomonastatic activity against Trichomonas vaginalis JH31A at 10 ug/ml after 24 hrs by Neubauer chamber analysis relative to control; type: functional
# Trypanosoma cruzi [9] = test: Trypanocidal activity against epimastigote stage of Trypanosoma cruzi CL Brener at 100 ug/mL after 72 hrs by beta-galactosidase reporter gene assay relative to control; type: functional
# J774 [10] = test: Cytotoxicity against mouse J774 cells at 10 ug/mL after 24 hrs by MTT assay; type: cell-based; details: j774, 24 h
# Trichomonas vaginalis [11] = test: Trichomonacidal activity against Trichomonas vaginalis JH31A at 100 ug/ml after 24 hrs by Neubauer chamber analysis relative to control; type: functional
# Plasmodium falciparum = test: Antimalarial activity against intraerythrocytic asexual stage of Plasmodium falciparum 3D7 assessed as inhibition of [G-3H]-hypoxanthine uptake by semiautomated microdilution method; type: functional, organism-based
# Trichomonas vaginalis [12] = test: Trichomonastatic activity against Trichomonas vaginalis JH31A at 1 ug/ml after 48 hrs by Neubauer chamber analysis relative to control; type: functional
# Leishmania braziliensis = test: Antiprotozoal activity against metacyclic promastigote stage of Leishmania braziliensis MHOM/PE/95/LQ2 assessed as growth inhibition after 72 hrs by Alamar Blue assay; type: functional, organism-based; details: for IC50: MHOM/PE/95/LQ2, 72 h
# J774 [13] = test: Cytotoxicity against mouse J774 cells at 1 ug/mL after 24 hrs by MTT assay; type: cell-based; details: j774, 24 h
# Toxoplasma gondii [14] = test: Antiprotozoal activity against tachyzoite stage of Toxoplasma gondii RH assessed as viability at 100 uM after 4 hrs by trypan blue exclusion assay relative to control; type: functional
# Trichomonas vaginalis [15] = test: Trichomonacidal activity against Trichomonas vaginalis JH31A at 10 ug/ml after 24 hrs by Neubauer chamber analysis relative to control; type: functional
# Toxoplasma gondii [16] = test: Antiprotozoal activity against tachyzoite stage of Toxoplasma gondii RH assessed as viability at 200 uM after 4 hrs by trypan blue exclusion assay relative to control; type: functional
# Toxoplasma gondii [17] = test: Antiprotozoal activity against tachyzoite stage of Toxoplasma gondii RH assessed as viability at 500 uM after 4 hrs by trypan blue exclusion assay relative to control; type: functional
# Toxoplasma gondii [18] = test: Antiprotozoal activity against tachyzoite stage of Toxoplasma gondii RH assessed as viability at 1 mM after 4 hrs by trypan blue exclusion assay relative to control; type: functional
# Trichomonas vaginalis [19] = test: Trichomonacidal activity against Trichomonas vaginalis JH31A at 1 ug/ml after 24 hrs by Neubauer chamber analysis relative to control; type: functional
# Trichomonas vaginalis [20] = test: Trichomonacidal activity against Trichomonas vaginalis JH31A at 0.5 ug/ml after 24 hrs by Neubauer chamber analysis relative to control; type: functional
# Trichomonas vaginalis [21] = test: Trichomonacidal activity against Trichomonas vaginalis JH31A at 2 ug/ml after 24 hrs by Neubauer chamber analysis relative to control; type: functional
# Trichomonas vaginalis [22] = test: Trichomonacidal activity against Trichomonas vaginalis JH31A at 0.5 ug/ml after 48 hrs by Neubauer chamber analysis relative to control; type: functional
# Trichomonas vaginalis [23] = test: Trichomonacidal activity against Trichomonas vaginalis JH31A at 1 ug/ml after 48 hrs by Neubauer chamber analysis relative to control; type: functional
# Trichomonas vaginalis [24] = test: Trichomonacidal activity against Trichomonas vaginalis JH31A at 2 ug/ml after 48 hrs by Neubauer chamber analysis relative to control; type: functional
# Toxoplasma gondii [25] = test: Antiprotozoal activity against tachyzoite stage of Toxoplasma gondii RH assessed as extrusion of cytoplasmic content by light microscopic analysis; type: functional, organism-based
# Trichomonas vaginalis [26] = test: Trichomonastatic activity against Trichomonas vaginalis JH31A at 100 ug/ml after 48 hrs by Neubauer chamber analysis relative to control; type: functional
# Trichomonas vaginalis [27] = test: Trichomonastatic activity against Trichomonas vaginalis JH31A at 100 ug/ml after 24 hrs by Neubauer chamber analysis relative to control; type: functional
Compound,Activity (Acanthamoeba castellanii),Activity (Trichomonas vaginalis [1]) [%],Activity (Trypanosoma cruzi [2]) [%],IC50 [3] [µg/mL],Activity (Trichomonas vaginalis [4]) [%],Activity (Trypanosoma cruzi [5]) [%],Activity (Trichomonas vaginalis [6]) [%],Activity (J774 [7]) [%],Activity (Trichomonas vaginalis [8]) [%],Activity (Trypanosoma cruzi [9]) [%],Activity (J774 [10]) [%],Activity (Trichomonas vaginalis [11]) [%],IC50 (Plasmodium falciparum) [µg/mL],Activity (Trichomonas vaginalis [12]) [%],growth inhibition (GI) (Leishmania braziliensis),IC50 (Leishmania braziliensis) [µg/mL],Activity (Toxoplasma gondii [14]) [%],Activity (Toxoplasma gondii [16]) [%],Activity (Toxoplasma gondii [17]) [%],Activity (Toxoplasma gondii [18]) [%],also measured
Br.O=C1CN(CCCCCN2CCc3ccccc3C2)c2ccc([N+](=O)[O-])cc2N1,inactive,44.06,56.77,1530,100,12.49,3.53,100,83.76,87.83,13.25,100,> 10,0,Dose-dependent effect,31.3,,,,,Activity (J774 [13]): 9.89%
Br.CN1C(=O)CN(CCCCCN2CCCC2)c2ccc([N+](=O)[O-])cc21,inactive,67.7,2.51,> 2000,100,0,0,49.25,,6.36,0,100,> 10,4.1,Dose-dependent effect,5.3,89,84,58,38,Activity (Trichomonas vaginalis [15]): 89.25%; Activity (J774 [13]): 0%
Cc1ncc([N+](=O)[O-])n1CCO [METRONIDAZOLE],,,,,,,,,,,,,,,,,,,,,Activity (Trichomonas vaginalis [19]): 99.1%; Activity (Trichomonas vaginalis [20]): 98%; Activity (Trichomonas vaginalis [21]): 100%; Activity (Trichomonas vaginalis [22]): 99.5%; Activity (Trichomonas vaginalis [23]): 100%; Activity (Trichomonas vaginalis [24]): 100%
CCN(CC)CCCC(C)Nc1ccnc2cc(Cl)ccc12 (stereo unspecified) [CHLOROQUINE],,,,40,,,,,,,,,,,,,,,,,
Br.CN(C)CCCCCN1CC(=O)N(C)c2cc([N+](=O)[O-])ccc21,inactive,11.26,,> 2000,100,,8.98,,45.71,,,100,> 10,0,Dose-dependent effect,8.15,81,90,93,81,
Br.CN1C(=O)CN(CCCCCN2CCCCCC2)c2ccc([N+](=O)[O-])cc21,inactive,70.41,15.38,1950,100,0,10.98,75.75,,65.46,20.24,100,> 10,2.87,Dose-dependent effect,5.3,81,77,71,0,Activity (Toxoplasma gondii [25]): Active; Activity (Trichomonas vaginalis [15]): 91.61%
CC1CS(=O)(=O)CCN1/N=C/c1ccc([N+](=O)[O-])o1 (stereo unspecified) [NIFURTIMOX],,,90,,,75.5,,25.9,,98.73,0.6,,,,,,,,,,Activity (J774 [13]): 0%
Br.CN1C(=O)CN(CCCCCN2CCc3ccccc3C2)c2ccc([N+](=O)[O-])cc21,inactive,23.28,15.62,950,100,11.77,4.71,99.44,70.98,19.78,24.44,100,6.47,4.1,inactive,,,,,,
Br.CN(C)CCCCCN1CC(=O)Nc2cc([N+](=O)[O-])ccc21,inactive,14.68,,> 2000,,,1.22,,11.43,,,,> 10,0,inactive,,95,96,93,73,Activity (Trichomonas vaginalis [26]): 28.33%; Activity (Trichomonas vaginalis [27]): 29.39%
Br.CN1C(=O)CN(CCCCCN2CCCCC2)c2ccc([N+](=O)[O-])cc21,inactive,86.52,60.68,> 2000,100,7.93,0,61.38,,79.12,11.57,100,> 10,0,Dose-dependent effect,9.57,96,90,40,36,Activity (Trichomonas vaginalis [15]): 92.63%
Br.O=C1CN(CCCCCN2CCCC2)c2ccc([N+](=O)[O-])cc2N1,inactive,1.64,5.35,> 2000,,4.38,3.53,0,21.02,83.54,0,,> 10,0,inactive,,91,85,0,0,Activity (Toxoplasma gondii [25]): Active; Activity (Trichomonas vaginalis [26]): 34.26%; Activity (J774 [13]): 0%; Activity (Trichomonas vaginalis [27]): 75.61%
Br.O=C1CN(CCCCCN2CCCCCC2)c2ccc([N+](=O)[O-])cc2N1,inactive,0,23.84,> 2000,100,8.35,2.35,59.14,12.94,97.73,5.78,100,5.72,0,Dose-dependent effect,39.3,88,82,0,0,Activity (Toxoplasma gondii [25]): Active; Activity (J774 [13]): 0%
Br.O=C1CN(CCCCCN2CCCCC2)c2ccc([N+](=O)[O-])cc2N1,inactive,5.74,17.68,> 2000,100,1.78,0,3.36,20.94,82.4,0,99.37,> 10,0,Dose-dependent effect,64.6,92,68,0,0,Activity (Toxoplasma gondii [25]): Active; Activity (J774 [13]): 0%
